Laboratory results published in patent publication US6737383B1, “Herbicidal oxadiazolidines” (priority 1999, dated 2004).

Legend:
sourgrass = test: Test D sourgrass; type: in vivo, Trichachne insularis; conditions: Preemergence, 0 to 100 scale
Excerpt: Seeds, tubers, or plant parts of Alexandergrass (Brachiaria plantaginea), bermuda-grass (Cynodon dactylon), common pursiane (Portulaca oleracea), common ragweed (Ambrosia elatior), common groundsel (Senecio vulgaris), dallisgrass (Paspalum dilatatum), goosegrass (Eleusine indica), guineagrass (Panicum maximum), itchgrass (Rottboellia exaltata), Johnson grass (Sorghum halepense), large crabgrass (Digitaria sanguinalis), pitted morningglory (Ipomoea lacunosa), purple nutsedge (Cyperus rotundus), sandbur (Cenchrus echinatus), sourgrass (Trichachne insularis), Spanishneedles (Bidens bipinnata), surinam grass (Brachiaria decumbens) and tall mallow (Malva sylvestris) were planted into greenhouse pots of flats containing greenhouse planting medium. Plant species were grown in separate pots or individual compartments. Preemergence applications were made within one day of planting the seed or plant part.
Test chemicals were formulated in a non-phytotoxic solvent mixture which included a surfactant and applied preemergence to the surface of the pot containing seeds in a sandy loam soil. Untreated control pots and treated pots were placed in the greenhouse for growth and visually evaluated for injury 14 to 21 days after herbicide application. Plant response ratings, summarized in Table C, are based on a 0 to 100 scale where 0 is no injury and 100 is complete control. A dash (−) response means no test result.

rape = test: Test E rape; type: in vivo, Brassica napus; conditions: Postemergence; for Plant response rating, Rape: 0 to 100 scale; for Rape plant response rating: Rate 250 g/ha, 0 to 100 scale where 0 is no effect and 100 is complete control
How it was run: (§1)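 Greenhouse test: compounds in non-phytotoxic solvent with surfactant; for postemergence, sprayed on plants at 1- to 4-leaf stage grown in 60:40 sandy loam/potting mix. Injury rated visually against untreated controls after about 21 to 28 days.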

wild oat = test: Test E wild oat; type: in vivo, Avena fatua; conditions: Postemergence; for Plant response rating, Wild oat: 0 to 100 scale
Protocol: (§2) Compounds evaluated in this test were formulated in a non-phytotoxic solvent mixture which included a surfactant and applied to plants that were in the 1- to 4-leaf stage (postemergence application). A mixture of sandy loam soil and greenhouse potting mix in a 60:40 ratio was used for the postemergence test.
(§3) Plantings of these crops and weed species were adjusted to produce plants of appropriate size for the postemergence test. All plant species were grown using normal greenhouse practices. Crop and weed species include annual bluegrass (Poa annua), blackgrass (Alopecurus myosuroides), black nightshade (Solanum nigra), chickweed (Stellaria media), common poppy (Papaver rhoeas), deadnettle (Lamium amplexicaule), downy brome (Bromus tectorum), field violet (Viola arvensis), galium (Galium aparine), green foxtail (Setaria viridis), Italian ryegrass (Lolium multiflorum), jointed goatgrass (Aegilops cylindrica), kochia (Kochia scoparia), lambsquarters (Chenopodium album), littleseed canarygrass (Phalaris minor), rape (Brassica napus), redroot pigweed (Amaranthus retroflexus), Russian thistle (Salsola kali), scentless chamomile (Matricaria inodora), spring barley (Hordeum vulgare), sugar beet (Beta vulgaris), sunflower (Helianthus annuus), ivyleaf speedwell (Veronica hederaefolia), spring wheat (Triticum aestivum), winter wheat (Triticum aestivum), wild buckwheat (Polygonum convolvulus), wild mustard (Sinapis arvensis), wild oat (Avena fatua), windgrass (Apera spica-venti) and winter barley (Hordeum vulgare).
(§4) Treated plants and untreated controls were maintained in a greenhouse for approximately 21 to 28 days, after which all treated plants were compared to untreated controls and visually evaluated. […] A dash response (-) means no test result.

annual bluegrass = test: Test E annual bluegrass; type: in vivo, Poa annua; conditions: Preemergence; for Annual bluegras plant response rating (0 to 100 scale): Rate 250 g/ha
spring wheat = test: Test E spring wheat; type: in vivo, Triticum aestivum; conditions: Postemergence; for Plant response rating, Spring Wheat: 0 to 100 scale; for Spring Wheat plant response rating: Rate 250 g/ha, 0 to 100 scale where 0 is no effect and 100 is complete control
How it was run: as §1

cotton = test: Test C postemergence cotton; type: in vivo, Gossypium hirsutum; conditions: 0 to 100 scale, 0 no effect, 100 complete control
Protocol: (§5) Compounds evaluated in this test were formulated in a non-phytotoxic solvent mixture which included a surfactant and applied to plants that were grown for various periods of time before treatment (postemergence application). A mixture of sandy loam soil and greenhouse potting mix in a 60:40 ratio was used for the postemergence test.
(§6) Plantings of these crops and weed species were adjusted to produce plants of appropriate size for the postemergence test. All plant species were grown using normal greenhouse practices. Crop and weed species include arrowleaf sida (Sida rhombifolia), barnyardgrass (Echinochloa crus-galli), cocklebur (Xanthium strumarium), common ragweed (Ambrosia elatior), corn (Zea mays), cotton (Gossypium hirsutum), eastern black nightshade (Solanum ptycanthum), fall panicum (Panicum dichotomiflorum), field bindweed (Convolvulus arvensis), giant foxtail (Setaria faberii), hairy beggarticks (Bidens pilosa), ivyleaf morningglory (Ipomoea hederacea), johnsongrass (Sorghum halepense), ladysthumb smartweed (Polygonum persicaria), lambsquarters (Chenopodium album), large crabgrass (Digitaria sanguinalis), purple nutsedge (Cyperus rotundus), redroot pigweed (Amaranthus retroflexus), soybean (Glycine max), surinam grass (Brachiaria decumbens), velvetleaf (Abutilon theophrasti) and wild poinsettia (Euphorbia heterophylla).
(§7) Treated plants and untreated controls were maintained in a greenhouse for approximately 14, to 21 days, after which all treated plants were compared to untreated controls and visually evaluated. Plant response ratings, summarized in Table C, were based upon a 0 to 100 scale where 0 was no effect and 100 was complete control. A dash response (−) means no test result.

sugar beet = test: Test E sugar beet; type: in vivo, Beta vulgaris; conditions: Postemergence; for Plant response rating, Sugar beet: 0 to 100 scale; for Sugar beet plant response rating: Rate 250 g/ha, 0 to 100 scale where 0 is no effect and 100 is complete control
Protocol: as §2, §3, §4

black nightshade = test: Test E black nightshade; type: in vivo, Solanum nigra; conditions: Preemergence; for Blk nightshade plant response rating (0 to 100 scale): Rate 250 g/ha
green foxtail [1] = test: Test E green foxtail; type: in vivo, Setaria viridis; conditions: Postemergence; for Plant response rating, Green foxtail: 0 to 100 scale; for Green foxtail plant response rating: Rate 250 g/ha, 0 to 100 scale where 0 is no effect and 100 is complete control
How it was run: as §1

ivyleaf morningglory = test: Test C postemergence ivyleaf morningglory; type: in vivo, Ipomoea hederacea; conditions: 0 to 100 scale, 0 no effect, 100 complete control
Protocol: as §5, §6, §7

Alexandergrass = test: Test D Alexandergrass; type: in vivo, Brachiaria plantaginea; conditions: Postemergence, 0 to 100 scale
Green foxtail [2] = test: Test D green foxtail; type: in vivo; conditions: Postemergence, 0 to 100 scale, 0 no injury, 100 complete control
Green foxtail [3] = test: Test D green foxtail; type: in vivo; conditions: Rate 250 g/ha; Postemergence; 0 to 100 scale
[4] = Rate 64 g/ha, 0 no injury, 100 complete control
[5] = Rate 125 g/ha, 0 no injury, 100 complete control
[6] = Rate 125 g/ha, 0 to 100 scale (0 no effect, 100 complete control)
[7] = Rate 125 g/ha, 0 is no effect, 100 is complete control
[8] = Rate 500 g/ha, 0 is no effect, 100 is complete control
[9] = Rate 500 g/ha, 0 to 100 scale where 0 is no effect and 100 is complete control
[10] = Rate 16 g/ha, 0 no injury, 100 complete control
[11] = Rate 32 g/ha, 0 no injury, 100 complete control

Structure (SMILES): COc1ccccc1-n1c(=O)on(C(=O)N(c2ccc(F)cc2)C(C)C)c1=O [Compound 30]
- Plant response rating Sourgrass (sourgrass; [4]): 100

Structure (SMILES): CC(C)N(C(=O)n1oc(=O)n(C)c1=O)c1ccc(F)cc1 [Compound 138]
- Plant response rating, Rape (rape; Rate 125 g/ha): 10
- Rape plant response rating (rape): 0
- Plant response rating, Wild oat (wild oat; Rate 125 g/ha): 0
- Wild oat plant response rating (wild oat; Rate 250 g/ha, 0 to 100 scale where 0 is no effect and 100 is complete control): 0
- Annual bluegras plant response rating (0 to 100 scale) (annual bluegrass): 70
- Plant response rating Sourgrass (sourgrass; [4]): 98
- Plant response rating Sourgrass (sourgrass; [5]): 100
- Plant response rating Sourgrass (sourgrass; Rate 500 g/ha): 100
- Plant response rating, Spring Wheat (spring wheat; Rate 125 g/ha): 0
- Spring Wheat plant response rating (spring wheat): 0
- Plant response rating Cotton (cotton; Rate 140 g/ha): 5
- Plant response rating Cotton (cotton; Rate 280 g/ha): 30
- Plant response rating Cotton (cotton; Rate 560 g/ha): 40
- Plant response rating Cotton (cotton; Rate 1120 g/ha): 70
- Plant response rating, Sugar beet (sugar beet; Rate 125 g/ha): 30
- Sugar beet plant response rating (sugar beet): 10
- Plant response rating, Blk nightshade (black nightshade; [6]): 85
- Blk nightshade plant response rating (0 to 100 scale) (black nightshade): 95
- Plant response rating, Green foxtail (green foxtail [1]; Rate 125 g/ha): 15
- Green foxtail plant response rating (green foxtail [1]): 70
- Plant response rating I. morningglory (ivyleaf morningglory; Rate 140 g/ha): 0
- Plant response rating I. morningglory (ivyleaf morningglory; Rate 280 g/ha): 0
- Plant response rating I. morningglory (ivyleaf morningglory; Rate 560 g/ha): 0
- Plant response rating I. morningglory (ivyleaf morningglory; Rate 1120 g/ha): 0

Structure (SMILES): CC(C)N(C(=O)n1oc(=O)n(C2CC2)c1=O)c1ccc(F)cc1 [Compound 242]
- Plant response rating, Rape (rape; Rate 62 g/ha): 20
- Plant response rating, Rape (rape; [7]): 10
- Rape plant response rating (rape): 0
- Plant response rating, Rape (rape; [8]): 50
- Plant response rating, Wild oat (wild oat; [7]): 0
- Plant response rating, Wild oat (wild oat; [8]): 20
- Plant response rating, Annual bluegras (annual bluegrass; [6]): 100
- Annual bluegras plant response rating (0 to 100 scale) (annual bluegrass): 100
- Plant response rating, Annual bluegras (annual bluegrass; [9]): 100
- Plant response rating, Alexandergrass (Alexandergrass; [10]): 0
- Plant response rating, Alexandergrass (Alexandergrass; [11]): 50
- Plant response rating, Alexandergrass (Alexandergrass; [4]): 90
- Plant response rating, Alexandergrass (Alexandergrass; [5]): 100
- Plant response rating, Alexandergrass (Alexandergrass; Rate 250 g/ha): 100
- Plant response rating, Spring Wheat (spring wheat; Rate 62 g/ha): 15
- Plant response rating, Spring Wheat (spring wheat; [7]): 20
- Spring Wheat plant response rating (spring wheat): 10
- Plant response rating, Spring Wheat (spring wheat; [8]): 20
- Plant response rating Cotton (cotton; Rate 140 g/ha): 0
- Plant response rating Cotton (cotton; Rate 280 g/ha): 20
- Plant response rating Cotton (cotton; Rate 560 g/ha): 45
- Plant response rating Cotton (cotton; Rate 1120 g/ha): 70
- Plant response rating, Sugar beet (sugar beet; Rate 62 g/ha): 50
- Plant response rating, Sugar beet (sugar beet; [7]): 50
- Sugar beet plant response rating (sugar beet): 40
- Plant response rating, Sugar beet (sugar beet; [8]): 30
- Plant response rating, Blk nightshade (black nightshade; [6]): 70
- Blk nightshade plant response rating (0 to 100 scale) (black nightshade): 95
- Plant response rating, Blk nightshade (black nightshade; [9]): 95
- Plant response rating, Green foxtail (green foxtail [1]; Rate 62 g/ha): 60
- Plant response rating, Green foxtail (green foxtail [1]; [7]): 30
- Green foxtail plant response rating (green foxtail [1]): 60
- Plant response rating, Green foxtail (green foxtail [1]; [8]): 70
- Plant response rating, Green foxtail (Green foxtail [2]; Rate 16 g/ha): 30
- Plant response rating, Green foxtail (Green foxtail [2]; Rate 32 g/ha): 100
- Plant response rating I. morningglory (ivyleaf morningglory; Rate 140 g/ha): 0
- Plant response rating I. morningglory (ivyleaf morningglory; Rate 280 g/ha): 0
- Plant response rating I. morningglory (ivyleaf morningglory; Rate 560 g/ha): 0
- Plant response rating I. morningglory (ivyleaf morningglory; Rate 1120 g/ha): 0
- Plant response rating, Green foxtail (Green foxtail [3]): 100

Structure (SMILES): CC(C)N(C(=O)n1oc(=O)n(C2CCCCCC2)c1=O)c1ccc(F)cc1F [Compound 342]
- Plant response rating, Alexandergrass (Alexandergrass; [10]): 0
- Plant response rating, Alexandergrass (Alexandergrass; [11]): 0
- Plant response rating, Alexandergrass (Alexandergrass; [4]): 0
- Plant response rating, Alexandergrass (Alexandergrass; [5]): 70
- Plant response rating, Alexandergrass (Alexandergrass; Rate 250 g/ha): 80
- Plant response rating, Green foxtail (Green foxtail [2]; Rate 16 g/ha): 0
- Plant response rating, Green foxtail (Green foxtail [2]; Rate 32 g/ha): 0
- Plant response rating, Green foxtail (Green foxtail [3]): 100
